Like-named read-outs stand apart in the source and are kept apart here.
What was measured:
Vero E6 cells [1] = assay: RealTime-Glo MT cell viability assay (compound cytotoxicity); settings: parallel plates, result in words
SARS-CoV-2 = assay: SYBR green-based qRT-PCR of SARS-CoV-2 RNA in supernatants of infected Vero E6 cells (compound screen); format: cell-based; settings: for Effect on SARS-CoV-2 viral RNA in supernatants / SARS-CoV-2 replication: MOI 0.01, 24 hpi, result in words; for IC50: Severe acute respiratory syndrome coronavirus 2, Vero C1008, MOI 0.01, 24 hpi, read-out: IC50 (50% inhibitory concentration), SARS-CoV-2 viral RNA in supernatants
Vero E6 cells [2] = system: Vero E6 cells

SMILES | Compound cytotoxicity (Vero E6 cells [1]) | Effect on SARS-CoV-2 viral RNA in supernatants / SARS-CoV-2 replication (SARS-CoV-2) | IC50 (SARS-CoV-2) | Potency on SARS-CoV-2 viral RNA in supernatants compared with 24 hpi (SARS-CoV-2; 48 hpi, data not shown) | Compound cytotoxicity (Vero E6 cells [2])
CC(C)CN(C[C@@H](O)[C@H](Cc1ccccc1)NC(=O)O[C@H]1CCOC1)S(=O)(=O)c1ccc(N)cc1 [amprenavir] | without apparent cytotoxicity | modestly inhibited | – | – | –
CCC(CC)COC(=O)[C@H](C)N[P@](=O)(OC[C@H]1O[C@@](C#N)(c2ccc3c(N)ncnn23)[C@H](O)[C@@H]1O)Oc1ccccc1 [remdesivir] | – | substantially decreased | 2.8 µg/mL | – | –
CCN(c1nc(N)c(C(=O)NC(=N)N)nc1Cl)C(C)C [EIPA, ethylisopropylamiloride] | – | substantially decreased viral RNA in supernatants at subcytotoxic levels | – | – | –
Cc1cccc(/C=N/Nc2cc(N3CCOCC3)nc(OCCc3ccccn3)n2)c1 [apilimod] | – | substantially decreased | 12 nM | less potent | minimal cytotoxicity
Cc1ccnc2c1NC(=O)c1cccnc1N2C1CC1 [nevirapine] | without apparent cytotoxicity | modestly inhibited | – | – | –
Cc1nc2ccc(Br)cc2c(-c2ccc(Cl)cc2)c1C(OC(C)(C)C)C(=O)O (stereo not shown) [ALLINI-2] | – | modestly inhibited | – | – | without apparent cytotoxicity

Reference: paper PMC7471006, “A Simplified Quantitative Real-Time PCR Assay for Monitoring SARS-CoV-2 Growth in Cell Culture” (mSphere, 2020)
